Experimental data from US10206937B2, “Boronic acid derivatives and therapeutic uses thereof” (Qpex Biopharma, Inc., priority 2014, dated 2019).
pIC50, pKi: −log10 of the molar value.

Tests used:
[1] = tested on: EC1064 (NDM-1, CMY-6, CTX-M-15); test: Carbapenem potentiation against clinical isolate (MIC); format: cell-based, Escherichia coli; conditions: antibiotic alone
[2] = tested on: KP1081 (NDM-1, TEM-1, SHV-11, CMY-6, CTX-M-15); test: as above; format: cell-based; conditions: antibiotic alone
[3] = tested on: AB1144 (NDM-1); test: as above; format: cell-based, Acinetobacter baumannii; conditions: AB1144; antibiotic alone
[4] = tested on: EA1019 (SHV-5, VIM-1); test: as above; format: cell-based, Enterobacter aerogenes; conditions: EA1019; antibiotic alone
[5] = tested on: KP1014 (VIM-1); test: as above; format: cell-based, Klebsiella pneumoniae; conditions: antibiotic alone
[6] = tested on: KP1054 (VIM-1, SHV-11); test: as above; format: cell-based, Klebsiella pneumoniae; conditions: antibiotic alone
[7] = tested on: KP1064 (KPC-2, SHV-11, TEM-1); test: as above; format: cell-based, Klebsiella pneumoniae; conditions: antibiotic alone
[8] = tested on: KP1074 (KPC-3, SHV-11, TEM); test: as above; format: cell-based, Klebsiella pneumoniae; conditions: antibiotic alone
[9] = tested on: KP1084 (KPC-3, SHV-11, TEM-1); test: as above; format: cell-based, Klebsiella pneumoniae; conditions: antibiotic alone
[10] = tested on: KP1004 (KPC-2, TEM-1, SHV-11); test: as above; format: cell-based, Klebsiella pneumoniae; conditions: antibiotic alone
[11] = tested on: KP1087 (KPC-2, CTX-M-15, SHV-11, TEM-1); test: as above; format: cell-based; conditions: antibiotic alone
[12] = tested on: KP1086 (TEM, SHV, CTX-M-15, OXA-48); test: as above; format: cell-based, Klebsiella pneumoniae; conditions: antibiotic alone
[13] = tested on: strains of Enterobacteriaceae overexpressing various carbapenemases (class A and B); test: microbe, parasite or virus in culture; format: cell-based; conditions: carbapenem alone or + Compound 14 at fixed 4 μg/ml, read-out: MIC
Excerpt: Several strains simultaneously expressing both class A and class B carbapenemases, which were constructed using conjugation, were also included in the panel.

[14] = biological target: T1, NDM-1 (Klebsiella pneumoniae, UniProt C7C422); test: biochemical
T1 sequence (C7C422 29-270, looked up, species assumed): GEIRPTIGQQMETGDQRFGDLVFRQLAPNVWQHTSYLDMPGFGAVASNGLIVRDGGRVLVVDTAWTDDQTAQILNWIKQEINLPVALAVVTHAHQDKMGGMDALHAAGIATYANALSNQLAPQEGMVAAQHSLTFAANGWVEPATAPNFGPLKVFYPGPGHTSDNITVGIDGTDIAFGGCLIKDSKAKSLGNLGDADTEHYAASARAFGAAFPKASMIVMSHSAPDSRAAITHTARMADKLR

[15] = biological target: T2, VIM-1 (Pseudomonas aeruginosa, UniProt A0A0F7KYQ8); test: biochemical; conditions: cleavage of nitrocefin (200 uM) by VIM-1 supernatant
T2 construct: made in house; host or cells: ECM6711 strain carrying pUCP24-VIM-1 plasmid; culture supernatant used unpurified

[16] = biological target: T1, NDM-1; test: Inhibition of purified class B carbapenemase NDM-1 (Ki, imipenem substrate); format: biochemical
[17] = biological target: T3, purified class A, C and D enzymes (UniProt Q9F663); format: biochemical; conditions: read-out: Ki (KPC-2, NCF); purified KPC-2; nitrocefin reporter substrate
T3 construct: rows headed: Ki (KPC-2, NCF); other: purified KPC-2; nitrocefin reporter substrate

[18] = tested on: ECM6703 (pUCP24-NDM-1); format: cell-based, E. coli; conditions: NDM-1 producing strain; Compound 1 at fixed 4 μg/ml or 8 μg/ml
[19] = tested on: ECM6711 (pUCP24-VIM-1); format: cell-based, E. coli; conditions: VIM-1 producing strain; Compound 1 at fixed 4 μg/ml or 8 μg/ml
[20] = tested on: clinical isolates expressing class A, B and D carbapenemases; test: Carbapenem potentiation by Compound 1, whole panel of clinical isolates (MIC); format: cell-based; conditions: Compound 1 at fixed 5 μg/ml in the growth media; all the strains
Excerpt: The results are present in Table 8.

C[C@@H](O)[C@H]1C(=O)N2C(C(=O)O)=C(S[C@@H]3CN[C@H](C(=O)N(C)C)C3)[C@H](C)[C@H]12 [Meropenem, reference compound]
Carbapenem MIC Alone [1]: Z (MIC of greater than 10 μg/mL)
Carbapenem MIC Alone [2]: Z (MIC of greater than 10 μg/mL)
Carbapenem MIC Alone [3]: Z (MIC of greater than 10 μg/mL)
Carbapenem MIC Alone [4]: Z (MIC of greater than 10 μg/mL)
Carbapenem MIC Alone [5]: Y (MIC of 1 μg/mL to 10 μg/mL)
Carbapenem MIC Alone [6]: Z (MIC of greater than 10 μg/mL)
Carbapenem MIC Alone [7]: Z (MIC of greater than 10 μg/mL)
Carbapenem MIC Alone [8]: Z (MIC of greater than 10 μg/mL)
Carbapenem MIC Alone [9]: Z (MIC of greater than 10 μg/mL)
Carbapenem MIC Alone [10]: Y (MIC of 1 μg/mL to 10 μg/mL)
Carbapenem MIC Alone [11]: Z (MIC of greater than 10 μg/mL)
Carbapenem MIC Alone [12]: Z (MIC of greater than 10 μg/mL)
MIC ([13]; Enterobacter cloacae, strain ECL1026, Enterobacter cloacae (KPC)): 1 to 10 µg/mL
MIC ([13]; Enterobacter cloacae, strain ECL1036, Enterobacter cloacae (KPC)): 1 to 10 µg/mL
MIC ([13]; Enterobacter cloacae, strain ECL1045, Enterobacter cloacae (VIM-1)): 1 to 10 µg/mL
MIC ([13]; Enterobacter cloacae, strain ECL1055, Enterobacter cloacae (KPC)): 1 to 10 µg/mL
MIC ([13]; Enterobacter cloacae, strain ECL1057, Enterobacter cloacae (NDM-1, TEM-1, CTX-M-15)): > 10 µg/mL
MIC ([13]; Enterobacter cloacae, strain ECL1082, Enterobacter cloacae (VIM-1)): 1 to 10 µg/mL
MIC ([13]; Enterobacter cloacae, strain ECLM1013, Enterobacter cloacae (NDM, KPC)): > 10 µg/mL
MIC ([13]; Enterobacter cloacae, strain ECLM1014, Enterobacter cloacae (NDM, KPC)): > 10 µg/mL
MIC ([13]; Enterobacter cloacae, strain ECLM1015, Enterobacter cloacae (NDM, KPC)): > 10 µg/mL
MIC ([13]; Enterobacter cloacae, strain ECLM1016, Enterobacter cloacae (NDM, KPC)): > 10 µg/mL
MIC ([13]; Enterobacter cloacae, strain ECLM1017, Enterobacter cloacae (VIM, KPC)): > 10 µg/mL
MIC ([13]; Enterobacter cloacae, strain ECLM1018, Enterobacter cloacae (VIM, KPC)): > 10 µg/mL
MIC ([13]; Enterobacter cloacae, strain ECLM1019, Enterobacter cloacae (VIM, KPC)): > 10 µg/mL
MIC ([13]; Escherichia coli, strain EC1064, Escherichia coli (NDM-1, CMY-6, CTX-M-15)): > 10 µg/mL
MIC ([13]; Escherichia coli, strain EC1068, Escherichia coli (VIM-1)): > 10 µg/mL
MIC ([13]; Klebsiella aerogenes, strain EA1019, Enterobacter aerogenes (SHV-5, VIM-1)): > 10 µg/mL
MIC ([13]; Klebsiella pneumoniae, strain KP1004, Klebsiella pneumoniae (KPC TEM SHV)): > 10 µg/mL
MIC ([13]; Klebsiella pneumoniae, strain KP1014, Klebsiella pneumoniae (Vim-1, TEM, SHV)): > 10 µg/mL
MIC ([13]; Klebsiella pneumoniae, strain KP1061, Klebsiella pneumoniae (KPC TEM SHV)): 1 to 10 µg/mL
MIC ([13]; Klebsiella pneumoniae, strain KP1064, Klebsiella pneumoniae (KPC TEM SHV)): > 10 µg/mL
MIC ([13]; Klebsiella pneumoniae, strain KP1070, Klebsiella pneumoniae (KPC TEM SHV)): > 10 µg/mL
MIC ([13]; Klebsiella pneumoniae, strain KP1084, Klebsiella pneumoniae (KPC-3, SHV-11, TEM-1)): > 10 µg/mL
MIC ([13]; Klebsiella pneumoniae, strain KP1097, Klebsiella pneumoniae (IMP-1 SHV)): > 10 µg/mL
MIC ([13]; Klebsiella pneumoniae, strain KP1098, Klebsiella pneumoniae (IMP-26 TEM SHV)): > 10 µg/mL
MIC ([13]; Klebsiella pneumoniae, strain KPM1097, Klebsiella pneumoniae (NDM, KPC)): > 10 µg/mL
MIC ([13]; Klebsiella pneumoniae, strain KPM1099, Klebsiella pneumoniae (NDM, KPC)): > 10 µg/mL
MIC ([13]; Klebsiella pneumoniae, strain KPM1107, Klebsiella pneumoniae (NDM, KPC)): > 10 µg/mL
MIC ([13]; Klebsiella pneumoniae, strain KPM1108, Klebsiella pneumoniae (NDM, KPC)): > 10 µg/mL
MIC ([13]; Klebsiella pneumoniae, strain KPM1123, Klebsiella pneumoniae (KPC-2 TEM SHV)): > 10 µg/mL
MIC ([13]; Klebsiella pneumoniae, strain KPM1344, Klebsiella pneumoniae (VIM-1)): > 10 µg/mL
MIC ([13]; Klebsiella pneumoniae, strain KPM1346, Klebsiella pneumoniae (NDM-1 TEM SHV CTX-M-15 CMY)): > 10 µg/mL
MIC ([13]; Klebsiella pneumoniae, strain KPM1347, Klebsiella pneumoniae (NDM-1 SHV CTX-M-15)): > 10 µg/mL
MIC ([13]; strain EC1065, Escherichai coli (IMP-1 CMY-2)): 1 to 10 µg/mL

O=C(O)c1cccc2c1OB(O)[C@@H](Sc1nncs1)C2 [Compound 1, (R)-3-(1,3,4-thiadiazol-2-ylthio)-2-hydroxy-3,4-dihydro-2H-benzo[e][1,2]oxaborinine-8-carboxylic acid]
pKi ([14]; Ki, Imipenem): 7.00 to 8.00
pKi ([14]; cleavage of biapenem (100 uM) by NDM-1, read-out: Ki, Biapenem): 7.00 to 8.00
pKi ([14]; cleavage of meropenem (100 uM) by NDM-1, read-out: Ki, Meropenem): 7.00 to 8.00
pKi ([14]; cleavage of tebipenem (100 uM) by NDM-1, read-out: Ki, Tebipenem): < 7.00
pIC50 [15]: > 6.00
pKi [16]: 7.00 to 8.00
pKi [17]: 6.00 to 7.00
imipenem MIC in the presence of Compound 1 [18]: decreased to the level of the strain containing empty vector
imipenem MIC in the presence of Compound 1 [19]: decreased to the level of the strain containing empty vector
carbapenem MIC (biapenem, doripenem, imipenem, meropenem) [20]: significantly reduced

C[C@@H](O)[C@H]1C(=O)N2C(C(=O)O)=C(S[C@@H]3CN[C@H](CNS(N)(=O)=O)C3)[C@H](C)[C@H]12 [Doripenem]
Carbapenem MIC Alone [1]: Z (MIC of greater than 10 μg/mL)
Carbapenem MIC Alone [2]: Z (MIC of greater than 10 μg/mL)
Carbapenem MIC Alone [3]: Z (MIC of greater than 10 μg/mL)
Carbapenem MIC Alone [4]: Z (MIC of greater than 10 μg/mL)
Carbapenem MIC Alone [5]: Z (MIC of greater than 10 μg/mL)
Carbapenem MIC Alone [6]: Z (MIC of greater than 10 μg/mL)
Carbapenem MIC Alone [7]: Z (MIC of greater than 10 μg/mL)
Carbapenem MIC Alone [8]: Z (MIC of greater than 10 μg/mL)
Carbapenem MIC Alone [9]: Z (MIC of greater than 10 μg/mL)
Carbapenem MIC Alone [10]: Y (MIC of 1 μg/mL to 10 μg/mL)
Carbapenem MIC Alone [11]: Z (MIC of greater than 10 μg/mL)
Carbapenem MIC Alone [12]: Z (MIC of greater than 10 μg/mL)
